Here are results for ten compounds from patent publication US7459557B2, “Substituted isoindole-1,3-diones” (Janssen Pharmaceutica N.V., priority 2005, dated 2008).

Structures are written as SMILES. Values joined by “and” are separate entries in the source; they are usually repeats but may differ in a detail not shown here. Equal entries are not always repeated.

Assay [1] concerns the target T1, α1b-AR (Homo sapiens, UniProt P35368).
T1 construct: expressed in transfected cells; host or cells: COS-7 (African Green monkey kidney) cell membranes
T1 sequence (P35368 1-520): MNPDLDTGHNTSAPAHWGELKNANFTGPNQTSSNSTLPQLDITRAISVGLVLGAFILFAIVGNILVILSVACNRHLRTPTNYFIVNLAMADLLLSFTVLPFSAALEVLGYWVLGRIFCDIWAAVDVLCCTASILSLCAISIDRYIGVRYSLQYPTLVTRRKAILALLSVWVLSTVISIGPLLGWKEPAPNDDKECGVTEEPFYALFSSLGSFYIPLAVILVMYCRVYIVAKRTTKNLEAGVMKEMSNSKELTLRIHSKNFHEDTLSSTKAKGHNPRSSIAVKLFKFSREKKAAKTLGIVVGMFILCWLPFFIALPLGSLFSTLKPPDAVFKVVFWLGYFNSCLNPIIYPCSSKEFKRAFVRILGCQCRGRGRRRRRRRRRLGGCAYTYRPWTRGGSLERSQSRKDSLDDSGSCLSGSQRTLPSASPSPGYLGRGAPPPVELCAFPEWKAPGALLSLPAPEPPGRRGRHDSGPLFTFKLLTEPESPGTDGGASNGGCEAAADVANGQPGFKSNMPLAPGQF
The experiment in a line: α1-adrenergic receptor radio-ligand (125I-HEAT) binding assay, α1b subtype. The settings on record: COS-7 cell membranes transfected with α1b subtype, 125I-HEAT 50 pM. The method, then:
(§1) α1-Adrenergic Receptor Binding Assay
(§2) Preparation of COS Cell Membranes
(§3) Membranes were prepared from COS-7 cells (African Green monkey kidney SV40-transformed cells) that had been transfected with one of the three α1-AR subtypes (Genbank accession number for the α1a subtype: AF013261; Genbank accession number for the α1b subtype: NM000679; Genbank accession number for the α1d subtype: NM000678) using the following method: COS cells from ten 100 mm tissue culture plates were scraped into a 5 mL volume of TE (a mixture of 50 mM Tris-HCl, 5 mM EDTA, pH 7.4). The cell suspension was disrupted with a Brinkman Polytron (at a setting of 8) for 10 sec. The disrupted cells were centrifuged at 1000×g for 10 min at 4° C. Supernatants were centrifuged at 34,500×g for 20 min at 4° C. The membrane pellets were suspended in a 2 mL volume of TNE (a mixture of 50 mM Tris-HCl, 5 mM EDTA and 150 mM NaCl at pH 7.4). An aliquot of the membrane suspension was stored at −70° C. until use. The protein concentration was determined using the BioRad “DC” protein assay kit following membrane solubilization with Triton X-100.
(§4) Radio-Ligand Binding Assay
Triplicate determinations of radio-ligand binding in the presence of increasing concentrations of testing compound were made. The reagents were added to 96-well polypropylene plate wells. Each assay well contained 140 μL TNE, 25 μL ^125I-2-(β-4-hydroxyphenyl)ethylaminomethyltetralone (^125I-HEAT) (specific activity 2200 Ci/mmol, Dupont-New England Nuclear, 50 pM final), 10 μL testing compound dissolved in dimethyl sulfoxide (DMSO) (1 pM to 10 μM in half-log increments, final), and 25 μL appropriate α1-AR membrane subtype suspension in TNE (0.5 ng/μL for the α1a and α1b subtypes and 13 ng/μL for the α1d subtype). The plate was incubated at rt for 1 hr. The contents of the wells were filtered through a glass filter (type C) (GF/C) membrane Unifilter plate (Packard Instruments) using the Packard Filtermate cell harvester. The filter plates were dried in a vacuum oven for 30 min at 40° C. 25 μL Microscint 20 liquid scintillation fluid (Packard Instuments) was added to each well. The radioactive content was analyzed in the TopCount microplate scintillation counter (Packard Instruments).
The Ki values (in nM) shown in Table 1 were determined using GraphPad Prism software.

Assay [2] has as its target T2, α1a-AR (Homo sapiens, UniProt P35348).
T2 construct: expressed in transfected cells; host or cells: COS-7 (African Green monkey kidney) cell membranes
T2 sequence (P35348 1-455 isoform P35348-4): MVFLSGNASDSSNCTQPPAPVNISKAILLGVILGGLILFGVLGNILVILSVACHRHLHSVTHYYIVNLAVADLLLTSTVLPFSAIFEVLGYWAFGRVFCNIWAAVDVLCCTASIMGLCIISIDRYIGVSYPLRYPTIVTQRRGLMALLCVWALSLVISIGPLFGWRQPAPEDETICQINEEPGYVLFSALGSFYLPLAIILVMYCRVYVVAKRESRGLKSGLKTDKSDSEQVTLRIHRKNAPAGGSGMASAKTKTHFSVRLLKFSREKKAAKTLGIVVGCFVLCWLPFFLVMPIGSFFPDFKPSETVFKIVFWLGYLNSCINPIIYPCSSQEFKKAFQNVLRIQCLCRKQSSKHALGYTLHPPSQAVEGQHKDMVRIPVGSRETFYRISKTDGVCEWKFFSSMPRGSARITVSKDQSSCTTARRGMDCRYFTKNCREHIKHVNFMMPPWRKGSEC
Description: α1-adrenergic receptor radio-ligand (125I-HEAT) binding assay, α1a subtype. The following applies: COS-7 cell membranes transfected with α1a subtype, 125I-HEAT 50 pM. The method, then: as §1, §2, §3, §4
(§5) Triplicate determinations of radio-ligand binding in the presence of increasing concentrations of testing compound were made. The reagents were added to 96-well polypropylene plate wells. […] The plate was incubated at rt for 1 hr. The contents of the wells were filtered through a glass filter (type C) (GF/C) membrane Unifilter plate (Packard Instruments) using the Packard Filtermate cell harvester. The filter plates were dried in a vacuum oven for 30 min at 40° C. 25 μL Microscint 20 liquid scintillation fluid (Packard Instuments) was added to each well. The radioactive content was analyzed in the TopCount microplate scintillation counter (Packard Instruments).

The target in assay [3] is T3, α1d-AR (Homo sapiens, UniProt P25100).
T3 construct: expressed in transfected cells; host or cells: COS-7 (African Green monkey kidney) cell membranes
T3 sequence (P25100 1-572): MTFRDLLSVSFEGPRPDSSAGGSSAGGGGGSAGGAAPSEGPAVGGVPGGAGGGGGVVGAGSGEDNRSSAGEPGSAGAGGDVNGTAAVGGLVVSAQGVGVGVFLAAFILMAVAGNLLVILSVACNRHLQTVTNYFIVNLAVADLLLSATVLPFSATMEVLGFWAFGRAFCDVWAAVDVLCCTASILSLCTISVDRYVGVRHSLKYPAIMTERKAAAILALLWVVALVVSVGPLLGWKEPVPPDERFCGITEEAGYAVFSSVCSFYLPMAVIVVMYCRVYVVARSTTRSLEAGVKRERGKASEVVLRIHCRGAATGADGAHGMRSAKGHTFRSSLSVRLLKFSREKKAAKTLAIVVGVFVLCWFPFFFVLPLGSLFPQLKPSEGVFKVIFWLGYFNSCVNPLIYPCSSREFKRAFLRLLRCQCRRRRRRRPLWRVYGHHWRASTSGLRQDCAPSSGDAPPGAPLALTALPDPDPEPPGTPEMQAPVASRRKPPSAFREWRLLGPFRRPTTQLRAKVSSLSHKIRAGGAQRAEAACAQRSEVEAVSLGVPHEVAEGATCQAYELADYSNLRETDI
Description: α1-adrenergic receptor radio-ligand (125I-HEAT) binding assay, α1d subtype. The settings on record: COS-7 cell membranes transfected with α1d subtype, 125I-HEAT 50 pM. The method, then:
as §1, §2, §3, §4, §5

Assay [4] has as its system α1a and α1d subtypes over the α1b subtype. The following applies: cited from earlier work.

With `CC(C)Oc1ccccc1N1CCN([C@H]2CC[C@H](N3C(=O)c4ccc5ccc(F)cc5c4C3=O)CC2)CC1` [Cpd 9, 8-fluoro-r-2-{t-4-[4-(2-isopropoxy-phenyl)-piperazin-1-yl]-cyclohexyl}-benzo[e]isoindole-1,3-dione], the Ki in assay [1] was 35 nM and 58 nM; in assay [2] it was 1.9 nM and 5.9 nM; in assay [3] it was 0.61 nM and 0.3 nM.
Regarding `CC(C)Oc1ccccc1N1CCN(C2CCC(N3C(=O)c4ccc5ccccc5c4C3=O)CC2)CC1` (mixture of isomers) [Cpd 7, 2-{4-[4-(2-isopropoxy-phenyl)-piperazin-1-yl]-cyclohexyl}-benzo[e]isoindole-1,3-dione], the Ki is 16 nM and 14 nM in assay [1]; 0.58 nM and 3 nM in assay [2]; 0.27 nM and 0.13 nM in assay [3].
For the compound `CC(C)Oc1ccccc1N1CCN([C@H]2CC[C@H](N3C(=O)c4cccc(F)c4C3=O)CC2)CC1` [Cpd 3, 4-fluoro-r-2-{t-4-[4-(2-isopropoxy-phenyl)-piperazin-1-yl]-cyclohexyl}-isoindole-1,3-dione], the Ki in assay [1] stood at 17.9 nM; in assay [2], 0.2 nM; in assay [3], 0.09 nM.
On to `CC(C)Oc1ccccc1N1CCN([C@H]2CC[C@@H](N3C(=O)c4cccc(F)c4C3=O)CC2)CC1` [Cpd 4, 4-fluoro-r-2-{c-4-[4-(2-isopropoxy-phenyl)-piperazin-1-yl]-cyclohexyl}-isoindole-1,3-dione], for which the Ki in assay [1] is 164 nM and 129 nM and 88 nM; in assay [2], 0.873 nM and 1.1 nM and 0.95 nM; in assay [3], 3.24 nM and 13.5 nM and 28 nM.
Regarding `CC(C)Oc1ccccc1N1CCN([C@H]2CC[C@@H](N3C(=O)c4ccc5ccc(F)cc5c4C3=O)CC2)CC1` [Cpd 8, 8-fluoro-r-2-{c-4-[4-(2-isopropoxy-phenyl)-piperazin-1-yl]-cyclohexyl}-benzo[e]isoindole-1,3-dione], the Ki in assay [1] stood at 269 nM; in assay [2], 15 nM; in assay [3], 16.4 nM.
On the same counts, the results for `CC(C)Oc1ccccc1N1CCN(C2CCC(N3C(=O)c4ccncc4C3=O)CC2)CC1` (mixture of isomers) [Cpd 6, 2-{4-[4-(2-isopropoxy-phenyl)-piperazin-1-yl]-cyclohexyl}-pyrrolo[3,4-c]pyridine-1,3-dione] are 22.4 nM, 0.43 nM and 0.77 nM.
With `CC(C)Oc1ccccc1N1CCN(C2CCC(N3C(=O)c4c(F)c(F)c(F)c(F)c4C3=O)CC2)CC1` (mixture of isomers) [Cpd 1, 4,5,6,7-tetrafluoro-2-{4-[4-(2-isopropoxy-phenyl)-piperazin-1-yl]-cyclohexyl}-isoindole-1,3-dione], the Ki in assay [1] came out at 4110 nM; in assay [2] it was 37.8 nM; in assay [3], 30.2 nM.
Turning to `CC(C)Oc1ccccc1N1CCN(C2CCC(N3C(=O)c4cccnc4C3=O)CC2)CC1` (mixture of isomers) [Cpd 5, 6-{4-[4-(2-isopropoxy-phenyl)-piperazin-1-yl]-cyclohexyl}-pyrrolo[3,4-b]pyridine-5,7-dione], the results for the Ki in assay [1], in assay [2] and in assay [3] were 44.6 nM, 0.75 nM and 1.45 nM, respectively.
For the compound `CCOc1ccccc1OCCN[C@H](C)Cc1ccc(OC)c(S(N)(=O)=O)c1` [Tamsulosin], the “selectivity for the α1a and α1d subtypes over the α1b subtype” value in assay [4] is “about 15 fold”.
Consider `CC(C)Oc1ccccc1N1CCN(C2CCC(N3C(=O)c4cc(Cl)c(Cl)cc4C3=O)CC2)CC1` (mixture of isomers) [Cpd 2, 5,6-dichloro-2-{4-[4-(2-isopropoxy-phenyl)-piperazin-1-yl]-cyclohexyl}-isoindole-1,3-dione], for which the Ki came to 1080 nM in assay [1], 2.69 nM in assay [2] and 0.31 nM in assay [3].
